# In patent US11739098B2 (BRISTOL-MYERS SQUIBB COMPANY, priority 2017, dated 2023):
# Experiments:
# Assay type in all cases: cell-based
# [1] = target: T1, human TLR7 (Homo sapiens, UniProt Q9NYK1); test: TLR7 inhibition reporter assay (HEK-Blue cells, SEAP reporter, gardiquimod stimulation); settings: HEK-Blue cells overexpressing human TLR7, SEAP reporter, gardiquimod 7.5 μM
# T1 construct: host or cells: HEK-Blue cells (HEK293-derived reporter line)
# T1 sequence (Q9NYK1 27-1049): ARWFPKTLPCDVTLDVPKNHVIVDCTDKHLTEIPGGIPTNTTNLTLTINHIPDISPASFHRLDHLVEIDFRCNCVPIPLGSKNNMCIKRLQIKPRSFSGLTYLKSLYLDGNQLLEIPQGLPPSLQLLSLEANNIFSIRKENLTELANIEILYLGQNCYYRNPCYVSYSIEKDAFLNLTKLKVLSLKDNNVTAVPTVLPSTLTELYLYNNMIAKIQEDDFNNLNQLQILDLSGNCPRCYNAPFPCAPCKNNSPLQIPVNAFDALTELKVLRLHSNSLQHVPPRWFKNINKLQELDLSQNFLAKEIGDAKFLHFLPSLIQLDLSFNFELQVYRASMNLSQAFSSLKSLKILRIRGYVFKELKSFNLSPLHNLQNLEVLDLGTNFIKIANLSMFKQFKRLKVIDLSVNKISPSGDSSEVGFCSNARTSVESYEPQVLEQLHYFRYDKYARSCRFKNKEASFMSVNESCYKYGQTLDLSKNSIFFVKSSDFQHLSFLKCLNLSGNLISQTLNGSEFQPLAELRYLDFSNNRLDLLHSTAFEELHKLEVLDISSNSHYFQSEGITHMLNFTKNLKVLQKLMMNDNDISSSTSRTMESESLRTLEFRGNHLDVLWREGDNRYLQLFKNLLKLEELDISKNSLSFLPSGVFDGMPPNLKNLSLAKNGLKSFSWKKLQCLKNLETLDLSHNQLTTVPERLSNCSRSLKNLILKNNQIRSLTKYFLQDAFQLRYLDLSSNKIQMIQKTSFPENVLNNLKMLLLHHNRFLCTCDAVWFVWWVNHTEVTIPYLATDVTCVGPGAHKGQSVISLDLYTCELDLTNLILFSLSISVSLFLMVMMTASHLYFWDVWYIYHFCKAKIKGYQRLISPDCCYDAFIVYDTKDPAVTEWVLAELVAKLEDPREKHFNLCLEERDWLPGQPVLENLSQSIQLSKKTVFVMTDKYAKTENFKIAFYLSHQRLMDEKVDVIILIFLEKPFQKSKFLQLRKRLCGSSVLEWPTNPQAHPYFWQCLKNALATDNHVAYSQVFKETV
# Outline: (§1)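 After 22 h at 37 °C, SEAP secretion was measured from human TLR7-, TLR8- or TLR9-expressing HEK-Blue reporter cells given compound (0.05 nM–50 μM) 30 min before agonist: 7.5 μM gardiquimod, 15.9 μM R848 or 5 nM ODN2006 respectively. Percent inhibition referenced to agonist-plus-DMSO and known-inhibitor wells.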
# [2] = target: T2, human TLR9 (Homo sapiens, UniProt Q9NR96); test: TLR9 inhibition reporter assay (HEK-Blue cells, SEAP reporter, ODN2006 stimulation); settings: HEK-Blue cells overexpressing human TLR9, SEAP reporter, ODN2006 5 nM
# T2 construct: host or cells: HEK-Blue cells (HEK293-derived reporter line)
# T2 sequence (Q9NR96 26-1032): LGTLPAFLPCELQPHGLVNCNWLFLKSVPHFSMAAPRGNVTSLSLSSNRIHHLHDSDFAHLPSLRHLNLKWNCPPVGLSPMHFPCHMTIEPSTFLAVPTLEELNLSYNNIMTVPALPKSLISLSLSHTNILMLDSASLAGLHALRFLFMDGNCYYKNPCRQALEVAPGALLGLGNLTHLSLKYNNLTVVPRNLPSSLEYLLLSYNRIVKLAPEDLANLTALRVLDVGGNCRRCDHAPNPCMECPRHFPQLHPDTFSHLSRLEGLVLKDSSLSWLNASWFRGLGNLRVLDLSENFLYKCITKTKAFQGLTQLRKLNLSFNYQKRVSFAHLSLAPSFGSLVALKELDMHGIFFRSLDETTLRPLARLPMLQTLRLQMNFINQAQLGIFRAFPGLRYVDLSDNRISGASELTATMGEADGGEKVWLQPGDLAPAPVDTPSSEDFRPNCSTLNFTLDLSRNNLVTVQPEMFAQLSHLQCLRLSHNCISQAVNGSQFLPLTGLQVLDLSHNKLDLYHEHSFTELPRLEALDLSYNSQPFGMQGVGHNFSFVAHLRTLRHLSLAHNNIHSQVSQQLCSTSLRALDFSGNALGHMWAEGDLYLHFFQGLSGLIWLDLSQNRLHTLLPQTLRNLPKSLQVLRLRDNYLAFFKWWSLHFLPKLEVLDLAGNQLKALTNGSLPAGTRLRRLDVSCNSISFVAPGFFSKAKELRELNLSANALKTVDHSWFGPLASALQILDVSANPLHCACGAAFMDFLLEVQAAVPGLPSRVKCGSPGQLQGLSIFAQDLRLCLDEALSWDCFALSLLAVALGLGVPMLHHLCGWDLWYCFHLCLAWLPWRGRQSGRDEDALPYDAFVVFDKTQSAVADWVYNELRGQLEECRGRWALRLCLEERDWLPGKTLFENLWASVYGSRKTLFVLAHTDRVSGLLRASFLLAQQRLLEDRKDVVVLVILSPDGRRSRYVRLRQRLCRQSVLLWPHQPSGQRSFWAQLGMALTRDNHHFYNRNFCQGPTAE
# Outline: as §1
# [3] = target: T3, human TLR8 (Homo sapiens, UniProt Q9NR97); test: TLR8 inhibition reporter assay (HEK-Blue cells, SEAP reporter, R848 stimulation); settings: HEK-Blue cells overexpressing human TLR8, SEAP reporter, R848 15.9 μM
# T3 construct: host or cells: HEK-Blue cells (HEK293-derived reporter line)
# T3 sequence (Q9NR97 27-1041): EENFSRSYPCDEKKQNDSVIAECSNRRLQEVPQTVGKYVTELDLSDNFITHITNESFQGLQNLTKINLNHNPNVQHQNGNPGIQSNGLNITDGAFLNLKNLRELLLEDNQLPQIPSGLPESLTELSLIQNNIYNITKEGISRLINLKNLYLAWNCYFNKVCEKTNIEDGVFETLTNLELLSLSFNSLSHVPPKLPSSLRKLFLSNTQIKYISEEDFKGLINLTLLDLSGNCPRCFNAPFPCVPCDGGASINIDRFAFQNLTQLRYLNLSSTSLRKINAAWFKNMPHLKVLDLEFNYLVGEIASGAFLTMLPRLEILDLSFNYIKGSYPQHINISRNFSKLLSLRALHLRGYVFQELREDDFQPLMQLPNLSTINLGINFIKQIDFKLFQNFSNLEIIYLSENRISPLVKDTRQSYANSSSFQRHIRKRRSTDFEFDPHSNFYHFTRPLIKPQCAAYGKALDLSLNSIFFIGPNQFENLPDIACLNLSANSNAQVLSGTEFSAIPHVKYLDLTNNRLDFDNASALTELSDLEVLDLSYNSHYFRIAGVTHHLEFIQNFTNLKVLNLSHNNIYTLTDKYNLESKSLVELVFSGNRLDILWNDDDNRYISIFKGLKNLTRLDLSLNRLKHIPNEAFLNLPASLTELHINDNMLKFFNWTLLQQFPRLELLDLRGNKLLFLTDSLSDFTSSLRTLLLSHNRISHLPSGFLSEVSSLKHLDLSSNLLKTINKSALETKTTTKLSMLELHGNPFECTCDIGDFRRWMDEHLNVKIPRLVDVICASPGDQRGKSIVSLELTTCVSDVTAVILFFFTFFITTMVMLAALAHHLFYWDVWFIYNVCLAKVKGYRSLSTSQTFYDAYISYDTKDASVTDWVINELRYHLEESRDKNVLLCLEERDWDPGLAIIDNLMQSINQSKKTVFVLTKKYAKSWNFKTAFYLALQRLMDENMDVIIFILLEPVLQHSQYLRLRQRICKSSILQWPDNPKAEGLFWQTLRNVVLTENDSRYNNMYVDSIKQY
# Outline: as §1
SMILES,IC50 [1] [nM],IC50 [2] [nM],IC50 [3] [nM]
"CNC(=O)CN1CCC(c2ccc3[nH]c(-c4cc(C)c5ncccc5c4)c(C(C)C)c3c2)CC1 [Example 437, 2-(4-(3-isopropyl-2-(8-methylquinolin-6-yl)-1H-indol-5-yl)piperidin-1-yl)-N-methylacetamide]",< 100,1000 to 50000,< 100
"CC(C)c1c(-c2ccn3nncc3c2)[nH]c2ccc(C3CCN(C4CCOCC4)CC3)cc12 [Example 696, 5-(3-isopropyl-5-(1-(tetrahydro-2H-pyran-4-yl)piperidin-4-yl)-1H-indol-2-yl)-[1,2,3]triazolo[1,5-a]pyridine]",< 100,1000 to 50000,100 to 1000
"Cc1cc(-c2[nH]c3ccc(C4CCN(C5COC5)CC4)cc3c2C(C)C)cc2[nH]c(=O)oc12 [Example 708, 5-(3-isopropyl-5-(1-(oxetan-3-yl)piperidin-4-yl)-1H-indol-2-yl)-7-methylbenzo[d]oxazol-2(3H)-one]",100 to 1000,1000 to 50000,100 to 1000
"CC(C)c1c(-c2cn(C)c3ncccc23)[nH]c2ccc(C3CCN(CCS(N)(=O)=O)CC3)cc12 [Example 783, 2-(4-(3-isopropyl-2-(1-methyl-1H-pyrrolo[2,3-b]pyridin-3-yl)-1H-indol-5-yl)piperidin-1-yl)ethane-1-sulfonamide]",< 100,1000 to 50000,< 100
"CCc1c(-c2ccnc3[nH]ncc23)[nH]c2ccc(C3CCN(Cc4cn[nH]n4)CC3)cc12 [Example 892, 4-(5-(1-((2H-1,2,3-triazol-4-yl)methyl)piperidin-4-yl)-3-ethyl-1H-indol-2-yl)-1H-pyrazolo[3,4-b]pyridine]",< 100,1000 to 50000,< 100
"Cc1c(-c2[nH]c3ccc(C4CCNCC4)cc3c2C(C)C)cn2ccnc2c1Cl [Example 133, 8-chloro-6-(3-isopropyl-5-(piperidin-4-yl)-1H-indol-2-yl)-7-methylimidazo[1,2-a]pyridine]",< 100,1000 to 50000,< 100
"CNC(=O)CN1CCC(c2ccc3[nH]c(-c4cnc5ccnn5c4)c(C(C)C)c3c2)CC1 [Example 360, 2-(4-(3-isopropyl-2-(pyrazolo[1,5-a]pyrimidin-6-yl)-1H-indol-5-yl)piperidin-1-yl)-N-methylacetamide]",1000 to 50000,1000 to 50000,> 3130
"Cc1cc2nc(-c3[nH]c4ccc(C5CCN(CC(=O)N(C)C)CC5)cc4c3C(C)C)c(F)cn2n1 [Example 438, 2-(4-(2-(6-fluoro-2-methylpyrazolo[1,5-a]pyrimidin-5-yl)-3-isopropyl-1H-indol-5-yl)piperidin-1-yl)-N,N-dimethylacetamide]",100 to 1000,1000 to 50000,100 to 1000

# The next lines start with the values.
IC50 [1] [nM],IC50 [2] [nM],IC50 [3] [nM],SMILES
100 to 1000,1000 to 50000,> 3130,"CC(C)c1c(-c2cnc3nn(C)cc3c2)[nH]c2ccc(C3CCN(C(=O)CN(C)C)CC3)cc12 [Example 505, 2-(dimethylamino)-1-(4-(3-isopropyl-2-(2-methyl-2H-pyrazolo[3,4-b]pyridin-5-yl)-1H-indol-5-yl)piperidin-1-yl)ethan-1-one]"
< 100,1000 to 50000,< 100,"Cc1cc(-c2[nH]c3ccc(C4CCN(CC(=O)N(C)C)CC4)cc3c2C(C)C)nc2scnc12 [Example 407, 2-(4-(3-isopropyl-2-(7-methylthiazolo[5,4-b]pyridin-5-yl)-1H-indol-5-yl)piperidin-1-yl)-N,N-dimethylacetamide]"
< 100,100 to 1000,< 100,"CC(C)c1c(-c2ccnc3cn[nH]c23)[nH]c2ccc(C3CCNCC3)cc12 [Example 54, 7-(3-isopropyl-5-(piperidin-4-yl)-1H-indol-2-yl)-1H-pyrazolo[4,3-b]pyridine]"
< 100,1000 to 50000,100 to 1000,"COc1cc(-c2[nH]c3ccc(C4CCN(CC(=O)N(C)C)CC4)cc3c2C(C)C)nn2ncnc12 [Example 283, 2-(4-(3-isopropyl-2-(8-methoxy-[1,2,4]triazolo[1,5-b]pyridazin-6-yl)-1H-indol-5-yl)piperidin-1-yl)-N,N-dimethylacetamide]"
< 100,1000 to 50000,< 100,"Cc1cc(-c2[nH]c3ccc(C4CCN(CC(C)(C)O)CC4)cc3c2C(C)C)cc2ncnn12 [Example 756, 1-(4-(3-isopropyl-2-(5-methyl-[1,2,4]triazolo[1,5-a]pyridin-7-yl)-1H-indol-5-yl)piperidin-1-yl)-2-methylpropan-2-ol]"
< 100,1000 to 50000,100 to 1000,"CC(C)c1c(-c2cc(C(C)C)c3nccn3c2)[nH]c2ccc(C3CCNCC3)cc12 [Example 260, 8-Isopropyl-6-(3-isopropyl-5-(piperidin-4-yl)-1H-indol-2-yl)imidazo[1,2-a]pyridine]"
